Data taken from patent US4479963A, “1-Carboxyalkanoylindoline-2-carboxylic acids” (Ciba-Geigy Corporation, priority 1982, dated 1984).

Tests used:
[1] = system: angiotensin I converting enzyme; assay: inhibition of pressor response following angiotensin I challenge in the dog; type: in vivo; conditions: oral dose of 10 mg/Kg
[2] = system: spontaneous hypertensive rat; assay: blood pressure and heart rate in the spontaneous hypertensive rat; type: in vivo
Method: The in vivo lowering effect on the blood pressure is recorded either directly by means of a catheter, for example placed in the dog's femoral artery, or indirectly by sphygmomanometry at the rat's tail, and a transducer, expressing the blood pressure prior and after dosing in mm Hg. Thus, for example, representative members of the compounds of this invention, illustrated by the Examples herein, are very effective in hypertensive rats and dogs at p.o.-doses as low or lower than 50 mg/kg/day.

[3] = system: angiotensin I converting enzyme; assay: inhibition of pressor response following angiotensin I challenge in normotensive rats; type: in vivo; conditions: rat
Method: The inhibition of said enzyme prevents the generation of angiotensin II from I and, therefore, attenuates any pressure response following an angiotensin I challenge.
The corresponding in vivo test is performed with male, normotensive rats, which are anesthetized with 100-120 mg/kg i.p. of sodium ethyl-(1-methylpropyl)malonylthiourea. A femoral artery and saphenous vein are cannulated for direct blood pressure measurement and i.v. administration of angiotensin I and compounds of this invention. After the basal blood pressure is stabilized, pressor responses to 3 challenges of 0.33 μg/kg of angiotensin I i.v., in 5 minute intervals, are obtained. Such pressure responses are again obtained 5, 10, 15, 30 and 60 minutes after either i.v., or p.o. administration (stomach tube) of the compounds to be tested, and compared with the initial responses.

[4] = target: T1, angiotensin-converting enzyme (Oryctolagus cuniculus, UniProt P12822); assay: in vitro inhibition of the angiotensin-converting enzyme; type: biochemical, rabbit; conditions: hippuryl-histidyl-leucine substrate, 37°, 30 minutes; enzyme from lungs of adult male rabbits
T1 construct: freshly prepared from lungs of adult male rabbits; from tissue; host or cells: lungs of adult male rabbits
T1 sequence (P12822 34-1310): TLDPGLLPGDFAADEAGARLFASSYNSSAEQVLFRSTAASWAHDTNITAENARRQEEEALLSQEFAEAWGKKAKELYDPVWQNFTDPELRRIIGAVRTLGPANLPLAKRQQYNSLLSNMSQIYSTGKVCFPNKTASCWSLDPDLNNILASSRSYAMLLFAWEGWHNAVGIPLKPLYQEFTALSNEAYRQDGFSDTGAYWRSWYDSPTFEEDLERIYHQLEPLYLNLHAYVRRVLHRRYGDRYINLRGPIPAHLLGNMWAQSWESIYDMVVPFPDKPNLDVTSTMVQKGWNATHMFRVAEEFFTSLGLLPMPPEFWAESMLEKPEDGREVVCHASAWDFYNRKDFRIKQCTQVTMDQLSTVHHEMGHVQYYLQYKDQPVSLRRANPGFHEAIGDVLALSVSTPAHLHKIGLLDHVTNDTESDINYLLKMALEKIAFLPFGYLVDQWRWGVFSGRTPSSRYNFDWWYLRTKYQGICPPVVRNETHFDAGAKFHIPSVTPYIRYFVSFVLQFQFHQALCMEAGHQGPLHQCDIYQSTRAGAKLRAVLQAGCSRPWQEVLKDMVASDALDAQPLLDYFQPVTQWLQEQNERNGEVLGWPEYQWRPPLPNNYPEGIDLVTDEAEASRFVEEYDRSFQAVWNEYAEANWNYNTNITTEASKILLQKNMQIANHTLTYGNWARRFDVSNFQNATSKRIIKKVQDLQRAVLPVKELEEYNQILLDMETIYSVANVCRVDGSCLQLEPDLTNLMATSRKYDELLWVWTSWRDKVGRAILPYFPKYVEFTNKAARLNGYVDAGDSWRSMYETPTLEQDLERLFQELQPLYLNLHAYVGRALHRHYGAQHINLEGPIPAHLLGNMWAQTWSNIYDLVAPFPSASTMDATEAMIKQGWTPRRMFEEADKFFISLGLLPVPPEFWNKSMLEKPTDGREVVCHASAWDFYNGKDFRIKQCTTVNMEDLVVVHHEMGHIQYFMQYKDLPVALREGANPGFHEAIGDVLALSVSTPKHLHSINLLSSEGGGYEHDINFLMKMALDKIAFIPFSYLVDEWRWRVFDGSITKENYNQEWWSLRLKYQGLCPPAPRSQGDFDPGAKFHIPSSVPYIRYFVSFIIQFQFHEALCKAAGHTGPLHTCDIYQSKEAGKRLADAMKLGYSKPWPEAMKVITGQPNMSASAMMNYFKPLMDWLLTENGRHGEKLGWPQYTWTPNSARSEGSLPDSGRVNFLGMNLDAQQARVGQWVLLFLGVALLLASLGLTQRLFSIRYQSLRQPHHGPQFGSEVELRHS
Method: Biophys. Acta 293, 451 (1973). According to this method said compounds are dissolved at about 1 mM concentrations in phosphate buffer, externally cooled with ice. […] Said solutions are incubated at 37° for 30 minutes and combined with 0.75 ml of 0.6 N aqueous sodium hydroxide to stop further reaction. Then 100 μl of o-phthalaldehyde are added at room temperature, and 10 minutes later 100 μl of 6N hydrochloric acid. These samples are read against water in a spectrophotometer set at 360 nm, and the optical densities thereof estimated. They are corrected for the standard curve via a conversion factor expressing nanomoles of histidyl-leucine formed during said 30 minute incubation period. The results are plotted against drug concentration to determine the IC50, i.e., the drug concentration which gives half the activity of the control sample containing no drug.

C[C@H](C[C@@H](C)C(=O)N1c2ccccc2C[C@H]1C(=O)O)C(=O)OCC(=O)OC1CC2CCC1(C)C2(C)C (stereo partly drawn) [1-4-(l-bornyloxycarbonylmethoxycarbonyl)-2R,4R-dimethylbutanoyl-indoline-2S-carboxylic acid]
inhibition of the pressor response following angiotensin I challenge [1]: inhibit the pressor response

CCOC(=O)[C@H](C)C[C@@H](C)C(=O)N1c2ccccc2C[C@H]1C(=O)O [1-(4-carboethoxy-2R,4R-dimethylbutanoyl)-indoline-2S-carboxylic acid]
decrease of heart rate ([2]; 30 mg/Kg p.o.): decrease heart rate
lowering of blood pressure ([2]; 30 mg/Kg p.o.): significantly lower blood pressure
inhibition of the pressor response following angiotensin I challenge ([3]; dose as low as 0.3 mg/Kg i.v.): about 50%
inhibition of the pressor response following angiotensin I challenge ([3]; dose as low as 4 mg/Kg p.o.): about 50%

CCOC(=O)[C@H](CCc1ccccc1)C[C@@H](C)C(=O)N1c2ccccc2C[C@H]1C(=O)O [1-(4-carboethoxy-2R-methyl-4R-phenethylbutanoyl)indoline-2S-carboxylic acid]
decrease of heart rate ([2]; 10 mg/Kg p.o.): decrease heart rate
lowering of blood pressure ([2]; 10 mg/Kg p.o.): significantly lower blood pressure

C[C@H](C[C@@H](C)C(=O)N1c2ccccc2C[C@H]1C(=O)O)C(=O)O [1-(4-carboxy-2R,4R-dimethylbutanoyl)-indoline-2S-carboxylic acid]
IC50 [4]: ~30 nM

C[C@H](C[C@@H](CCc1ccccc1)C(=O)O)C(=O)N1c2ccccc2C[C@H]1C(=O)O [1-(4-carboxy-2R-methyl-4R-phenethylbutanoyl)indoline-2S-carboxylic acid]
IC50 [4]: ~5 nM

C[C@H](CCC(=O)O)C(=O)N1c2ccccc2C[C@H]1C(=O)O [1-(4-carboxy-2R-methylbutanoyl)-indoline-2S-carboxylic acid]
IC50 [4]: ~40 nM

O=C(O)CCCC(=O)N1c2ccccc2C[C@H]1C(=O)O [1-(4-carboxybutanoyl)-indoline-2S-carboxylic acid]
IC50 [4]: ~300 nM

C[C@H](C[C@@H](C)C(=O)N1c2ccccc2C[C@H]1C(=O)O)C(=O)OCOC(=O)C(C)(C)C [1-[4-(pivaloyloxymethoxycarbonyl)-2R,4R-dimethylbutanoyl]-indoline-2S-carboxylic acid]
inhibition of the pressor response following angiotensin I challenge [1]: inhibit the pressor response
